These results are taken from patent US20030232994A1, “Bicyclic thiophene derivatives and combinatorial libraries thereof” (priority 2001, published 2003).

Molecules are shown by their SMILES.

The assay has as its system Streptococcus pyogenes (ATCC# 97-03 14289). Nature of the assay: Anti-microbial screen (growth inhibition, OD 570 nm). The format is cell-based. As to conditions: growth in Todd Hewitt Broth, plates read at 570 nm at 0 time and 4 hours, color corrected. The method, then: Streptococcus pyogenes (ATCC# 97-03 14289) was grown in Todd Hewitt Broth (THB) (Difco Laboratories #0492-17-6) overnight until reaching an optical density of (OD=0.636 @ 570 nm) by reading 0.1 ml in a 96 well microtiter plate in a Molecular Devices Thermomax. This preparation was kept frozen as stocks in 30% v/v glycerol in 1.5 ml aliquots at −70^mC. until use. Prior to experiments, […] aliquots were thawed and diluted into 50 ml 2×THB. 60 ul of this dilution was added to 92 wells of microtiter plate. To three wells THB (200 ul) was added to serve as a blank and a sterility control. Test compounds in DMSO and appropriate concentrations of DMSO were added to Growth/Solvent Controls at 0 time. Plates were read at 0 time at 570 nm in the Molecular Devices plate reader to obtain compounds correction factors for insoluble or colored compounds. Plates were read again at 4 hours.
Percent inhibition is calculated with the following formulae: [drawing 4]
Color correct=O.D. 0 hr−Blank 0 hr)−(Solvent Control 0 hr−Blank 0 hr)
% Inhibition=100−O.D. test compound 4 hr−Blank 4 hr−color correct O.D. growth/solvent control 4 hr−Blank 4 hr
The % Inhibition is the share of the control response that was lost under treatment. The low end stands for little suppression, the high end for strong suppression. As to `CC(C)CC(=O)N1CCc2c(sc(NC(=O)c3ccccc3)c2C(=O)O)C1`, the “% Inhibition” value came to 98.72%. `CC(=O)Nc1cccc(C(=O)N2CCc3c(sc(NC(=O)c4ccccc4)c3C(=O)O)C2)c1`: the “% Inhibition” value stood at 96.85%. With `O=C(Nc1sc2c(c1C(=O)O)CCN(C(=O)c1cc3ccccc3s1)C2)c1ccco1`, the “% Inhibition” value is reported as 96.65%. For `Cc1ccc(C)c(CC(=O)N2CCc3c(sc(NC(=O)c4ccc(C(C)(C)C)cc4)c3C(=O)O)C2)c1` the value was 92.67%. The figure for `CCCc1ccc(C(=O)Nc2sc3c(c2C(=O)O)CCN(C(=O)c2cccnc2OCC)C3)cc1` is 92.34%; for `CCCSc1ncccc1C(=O)N1CCc2c(sc(NC(=O)c3ccc(CC)cc3)c2C(=O)O)C1` it is 92.01%.

`CC(=O)Nc1cccc(C(=O)N2CCc3c(sc(NC(=O)c4ccc(C(C)(C)C)cc4)c3C(=O)O)C2)c1`: the “% Inhibition” value is reported as 92.01%.

Take `CC(C)C(=O)N1CCc2c(sc(NC(=O)c3ccccc3)c2C(=O)O)C1`: the “% Inhibition” value is reported as 90.8%.

Turning to `CC(=O)Nc1ccc(C(=O)N2CCc3c(sc(NC(=O)c4ccccc4)c3C(=O)O)C2)cc1`, the “% Inhibition” value is listed as 90.8%. The figure for `Cc1ccccc1C(=O)N1CCc2c(sc(NC(=O)c3ccco3)c2C(=O)O)C1` is 90.41%; for `COc1cccc(C(=O)Nc2sc3c(c2C(=O)O)CCN(C(=O)c2ccc(Cl)cc2)C3)c1` it is 90.32%. For `CCCc1ccc(C(=O)Nc2sc3c(c2C(=O)O)CCN(C(=O)c2ccccc2SC)C3)cc1` the value was 90.02%. Consider `CC(C)(C)c1ccc(C(=O)Nc2sc3c(c2C(=O)O)CCN(C(=O)c2ccccc2Cl)C3)cc1`, for which the “% Inhibition” value is reported as 89.72%. For `O=C(Nc1sc2c(c1C(=O)O)CCN(C(=O)C1CCC1)C2)c1ccccc1` the value was 89.4%. The figure for `CCCCOc1ccc(C(=O)Nc2sc3c(c2C(=O)O)CCN(C(=O)c2cc4ccccc4s2)C3)cc1` is 89.4%; for `CCCc1ccc(C(=O)Nc2sc3c(c2C(=O)O)CCN(C(=O)CCc2ccc(F)c(F)c2)C3)cc1` it is 89.36%.

In the case of `CCCSc1ncccc1C(=O)N1CCc2c(sc(NC(=O)c3cccc(OC)c3)c2C(=O)O)C1`, the “% Inhibition” value was 88.5%. Regarding `CCCc1ccc(C(=O)Nc2sc3c(c2C(=O)O)CCN(C(=O)c2ccc(F)cc2F)C3)cc1`, the “% Inhibition” value is given as 88.03%. Turning to `O=C(Nc1sc2c(c1C(=O)O)CCN(C(=O)c1ccc(F)c(F)c1)C2)c1ccc2ccccc2c1`, the “% Inhibition” value was found to be 87.61%. For `Cn1cc(C(=O)N2CCc3c(sc(NC(=O)c4ccccc4)c3C(=O)O)C2)c2ccccc21` the value was 87.54%; for `O=C(Nc1sc2c(c1C(=O)O)CCN(C(=O)c1ccc(Cl)cc1)C2)c1ccccc1`, 87.07%. The figure for `CC(C)(C)c1ccc(C(=O)Nc2sc3c(c2C(=O)O)CCN(C(=O)c2ccc(F)cc2F)C3)cc1` is 86.77%. Turning to `CCCc1ccc(C(=O)Nc2sc3c(c2C(=O)O)CCN(C(=O)c2ccc(F)c(F)c2)C3)cc1`, the “% Inhibition” value worked out at 86.71%. For `CCCSc1ncccc1C(=O)N1CCc2c(sc(NC(=O)c3ccccc3)c2C(=O)O)C1` the value was 86.6%; for `CCc1ccc(C(=O)Nc2sc3c(c2C(=O)O)CCN(C(=O)c2ccccc2SC)C3)cc1`, 86.44%; for `CCCc1ccc(C(=O)Nc2sc3c(c2C(=O)O)CCN(C(=O)c2ccccc2Cl)C3)cc1`, 86.38%. For `COc1ccc(OC)c(C(=O)N2CCc3c(sc(NC(=O)c4ccc5ccccc5c4)c3C(=O)O)C2)c1`, the “% Inhibition” value is on record as 86.36%. With `Cc1ccc(C)c(CC(=O)N2CCc3c(sc(NC(=O)c4ccccc4)c3C(=O)O)C2)c1`, the “% Inhibition” value is reported as 86.14%. Regarding `CCc1ccc(C(=O)Nc2sc3c(c2C(=O)O)CCN(C(=O)c2ccccc2C(F)(F)F)C3)cc1`, the “% Inhibition” value was 86.11%. On to `COc1ccc(OC)c(C(=O)N2CCc3c(sc(NC(=O)CCC4CCCC4)c3C(=O)O)C2)c1`, for which the “% Inhibition” value is 86.05%. As to `CCCc1ccc(C(=O)Nc2sc3c(c2C(=O)O)CCN(C(=O)c2cccnc2SC)C3)cc1`, the “% Inhibition” value was determined as 86.05%. On to `O=C(Nc1sc2c(c1C(=O)O)CCN(C(=O)c1ccsc1)C2)c1ccccc1Cl`, for which the “% Inhibition” value was determined as 85.87%. Turning to `CCc1ccc(C(=O)Nc2sc3c(c2C(=O)O)CCN(C(=O)c2ccc(C)cc2C)C3)cc1`, the “% Inhibition” value is 85.78%. For `CCc1ccc(C(=O)Nc2sc3c(c2C(=O)O)CCN(C(=O)CCc2ccc(F)c(F)c2)C3)cc1` the value was 85.13%. `CCCc1ccc(C(=O)Nc2sc3c(c2C(=O)O)CCN(C(=O)CC(C)C)C3)cc1`: the “% Inhibition” value is 84.72%. In the case of `COc1cccc(C(=O)Nc2sc3c(c2C(=O)O)CCN(C(=O)Cc2cc(C)ccc2C)C3)c1`, the “% Inhibition” value came to 62.32%. For the compound `CCc1ccc(C(=O)Nc2sc3c(c2C(=O)O)CCN(C(=O)c2cn(C)c4ccccc24)C3)cc1`, the “% Inhibition” value is on record as 62.19%. The figure for `Cc1ccsc1C(=O)N1CCc2c(sc(NC(=O)c3ccc(Cl)cc3)c2C(=O)O)C1` is 62.02%; for `COc1ccccc1C(=O)Nc1sc2c(c1C(=O)O)CCN(C(=O)Cc1cc(C)ccc1C)C2` it is 61.95%.

Turning to `Cc1ccccc1C(=O)N1CCc2c(sc(NC(=O)[C@]34C[C@H]5C[C@@H](C[C@H](C5)C3)C4)c2C(=O)O)C1`, the “% Inhibition” value amounted to 61.84%. For `CCCSc1ncccc1C(=O)N1CCc2c(sc(NC(=O)c3ccccc3OC)c2C(=O)O)C1` the value was 61.59%.

`CCCc1ccc(C(=O)Nc2sc3c(c2C(=O)O)CCN(C(=O)CC2CCCC2)C3)cc1`: the “% Inhibition” value worked out at 61.53%. Take `O=C(CCC1CCCC1)Nc1sc2c(c1C(=O)O)CCN(C(=O)c1ccc(F)c(F)c1)C2`: the “% Inhibition” value amounted to 61.45%. Turning to `CC(C)(C)c1ccc(C(=O)Nc2sc3c(c2C(=O)O)CCN(C(=O)c2ccoc2)C3)cc1`, the “% Inhibition” value is on record as 61.2%. For `CCCc1ccc(C(=O)Nc2sc3c(c2C(=O)O)CCN(C(=O)c2ccc(C)cc2C)C3)cc1` the value was 61.2%; for `O=C(Nc1sc2c(c1C(=O)O)CCN(C(=O)c1ccc(F)c(F)c1)C2)c1ccccc1Cl`, 61.26%. The figure for `COc1cccc(C(=O)N2CCc3c(sc(NC(=O)C4CCCCC4)c3C(=O)O)C2)c1OC` is 61.06%; for `CCc1ccc(C(=O)Nc2sc3c(c2C(=O)O)CCN(C(=O)c2sccc2C)C3)cc1` it is 60.88%; for `COc1ccccc1C(=O)Nc1sc2c(c1C(=O)O)CCN(C(=O)CCc1ccc(F)c(F)c1)C2` it is 60.86%. For `CCC(=O)N1CCc2c(sc(NC(=O)C(CC)c3ccccc3)c2C(=O)O)C1` (stereo not drawn) the value was 60.7%.

Regarding `CCCc1ccc(C(=O)Nc2sc3c(c2C(=O)O)CCN(C(=O)c2cc(OC)ccc2OC)C3)cc1`, the “% Inhibition” value was 60.54%. For `CSc1ncccc1C(=O)N1CCc2c(sc(NC(=O)c3ccccc3Cl)c2C(=O)O)C1` the value was 60.53%. With `COc1cccc(C(=O)N2CCc3c(sc(NC(=O)c4ccccc4Cl)c3C(=O)O)C2)c1OC`, the “% Inhibition” value came out at 60.53%.

Regarding `O=C(Nc1sc2c(c1C(=O)O)CCN(C(=O)c1ccccc1Cl)C2)c1ccco1`, the “% Inhibition” value was determined as 60.48%. For the compound `COc1cc(Cl)ccc1C(=O)N1CCc2c(sc(NC(=O)c3c(F)cccc3F)c2C(=O)O)C1`, the “% Inhibition” value is 59.98%. Regarding `CC(C)(C)c1ccc(C(=O)Nc2sc3c(c2C(=O)O)CCN(C(=O)C2CCCCC2)C3)cc1`, the “% Inhibition” value is reported as 59.89%. On to `O=C(Nc1sc2c(c1C(=O)O)CCN(C(=O)C1CCC1)C2)c1ccc2ccccc2c1`, for which the “% Inhibition” value is recorded as 59.86%.

With `O=C(Nc1sc2c(c1C(=O)O)CCN(C(=O)c1ccc(C(F)(F)F)cc1)C2)c1c(F)cccc1F`, the “% Inhibition” value is listed as 59.67%. For `CC(C)CC(=O)N1CCc2c(sc(NC(=O)c3ccccc3Cl)c2C(=O)O)C1` the value was 59.63%; for `CC(C)(C)c1ccc(C(=O)Nc2sc3c(c2C(=O)O)CCN(C(=O)c2ccc(C(F)(F)F)cc2)C3)cc1`, 59.57%.
